In patent US10633407B2, “14-membered ketolides and methods of their preparation and use” (President and Fellows of Harvard College, priority 2014, dated 2020):
≈ marks a conversion by molar mass, not a printed value.

Legend:
Test in all cases: CLSI broth dilution MIC determination
Type in all cases: cell-based
[1] = system: E. coli ATCC 25922; conditions: Escherichia coli, ATCC25922, E. coli ATCC 25922 (MP-4); read-out: MIC
Outline: (§1)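 CLSI broth-dilution MIC. Controls: azithromycin, solithromycin (many cases). Macrolide-resistance genotypes constitutive or inducible.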

[2] = system: E. coli MP-532 clinical-cErmB; conditions: Escherichia coli
Outline: as §1

[3] = system: E. coli MP-541 clinical; conditions: Escherichia coli, MP541CLINICAL, read-out: MIC
Outline: as §1

[4] = system: E. coli MP-9 ATCC25922:tolC; conditions: Escherichia coli, ATCC25922
Outline: as §1

[5] = system: S. aureus (MRSA) MP-513 ST-228 cErm (Clinical-cErm); conditions: Staphylococcus aureus, read-out: MIC
Outline: as §1

[6] = system: S. aureus ATCC 29213; conditions: Staphylococcus aureus, ATCC29213; S. aureus ATCC 29213 (MP-12); read-out: MIC
Outline: as §1

[7] = system: S. aureus MP-17 ATCCBAA-977 (BAA 977 iErm); conditions: Staphylococcus aureus; S. aureus MP-17, ATCCBAA-977, iErm; read-out: MIC
Outline: as §1

[8] = system: S. aureus MRSA: USA100; conditions: Staphylococcus aureus; S. aureus MRSA: USA100 (MP-618 UNT-096); read-out: MIC
Outline: as §1

[9] = system: S. aureus MRSA: USA300; conditions: Staphylococcus aureus; S. aureus MRSA: USA300 (MP-549, msr(a)); read-out: MIC
Outline: as §1

[10] = system: S. aureus USA600, GISA; conditions: Staphylococcus aureus; S. aureus USA600, GISA (MP-619 UNT-120); read-out: MIC
Outline: as §1

[11] = system: S. aureus erm A genotype; conditions: Staphylococcus aureus; S. aureus erm A genotype (MP-620 UNT-146); read-out: MIC
Outline: as §1

[12] = system: S. pneumoniae ATCC 49619; conditions: Streptococcus pneumoniae, ATCC49619, S. pneumoniae ATCC 49619 (MP-21); read-out: MIC
Outline: as §1

[13] = system: S. pneumoniae mef A genotype (first strain so labelled); conditions: Streptococcus pneumoniae, first strain (MP-626 UNT-038)
Outline: as §1

[14] = system: S. pneumoniae mef A genotype (second strain so labelled); conditions: Streptococcus pneumoniae, second strain (MP-627 UNT-039), read-out: MIC
Outline: as §1

[15] = system: S. pyogenes ATCC 19615; conditions: Streptococcus pyogenes, ATCC19615, S. pyogenes ATCC 19615 (MP-19); read-out: MIC
[16] = system: S. pyogenes Macrolide-resistant; conditions: Streptococcus pyogenes, S. pyogenes Macrolide-resistant (MP-625 UNT-014); read-out: MIC
[17] = system: E. faecalis ATCC 29212; conditions: Enterococcus faecalis, ATCC29212, E. faecalis ATCC 29212 (MP-24); read-out: MIC
[18] = system: E. faecalis Vancomycin-resistant; conditions: Enterococcus faecalis, E. faecalis Vancomycin-resistant (UNT-039); read-out: MIC
[19] = system: A. baumannii ATCC 19606; conditions: Acinetobacter baumannii, ATCC19606; A. baumannii ATCC 19606 (MP-15); read-out: MIC
[20] = system: K. pneumoniae ATCC 10031; conditions: Klebsiella pneumoniae, ATCC10031, K. pneumoniae ATCC 10031 (MP-14); read-out: MIC
[21] = system: P. aeruginosa ATCC 27853; conditions: Pseudomonas aeruginosa, ATCC27853; P. aeruginosa ATCC 27853 (MP-3); read-out: MIC
[22] = system: P. aeruginosa MP-7 PAO1; conditions: Pseudomonas aeruginosa, read-out: MIC
[23] = system: P. aeruginosa MP-8 PAO1:mex (mex-oprM-deletion); conditions: Pseudomonas aeruginosa, PAO1
[24] = system: K. pneumoniae MP-548 clinical; conditions: Klebsiella pneumoniae, MP548CLINICAL, read-out: MIC
[25] = system: K. pneumoniae MP-546 Clinical-MDR; conditions: Klebsiella pneumoniae, read-out: MIC
[26] = system: A. baumannii MP-577 Clinical-AZT low; conditions: Acinetobacter baumannii, read-out: MIC
[27] = system: A. baumannii MP-576 Clinical-MDR; conditions: Acinetobacter baumannii, read-out: MIC

| SMILES | MIC [1] [µg/mL] | MIC [2] [µg/mL] | MIC [3] [µg/mL] | MIC [4] [µg/mL] | MIC [5] [µg/mL] | MIC [6] [µg/mL] | MIC [7] [µg/mL] | MIC [8] [µg/mL] | MIC [9] [µg/mL] | MIC [10] [µg/mL] | MIC [11] [µg/mL] | MIC [12] [µg/mL] | MIC [13] [µg/mL] | MIC [14] [µg/mL] | MIC [15] [µg/mL] | MIC [16] [µg/mL] | MIC [17] [µg/mL] | MIC [18] [µg/mL] | MIC [19] [µg/mL] | MIC [20] [µg/mL] | further results |
| --- | --- | --- | --- | --- | --- | --- | --- | --- | --- | --- | --- | --- | --- | --- | --- | --- | --- | --- | --- | --- | --- |
| CC[C@H]1OC(=O)[C@@](C)(F)C(=O)[C@H](C)[C@@H](O[C@@H]2OC(C)CC(N(C)C)C2O)[C@](C)(OC)C[C@@H](C)C(=O)[C@H](C)[C@H]2N(CC#CCn3cc(-c4cc(F)ccn4)nn3)C(=O)O[C@]12C (stereo partly drawn) [FSM-100563] | 16 (≈ 18.9 µM) | > 64 | 16 (≈ 18.9 µM) | 2 (≈ 2.37 µM) | 16 (≈ 18.9 µM) | 0.06 (≈ 0.071 µM) | 0.06 (≈ 0.071 µM) | 32 (≈ 37.9 µM) | 0.125 (≈ 0.148 µM) | 16 (≈ 18.9 µM) | 16 (≈ 18.9 µM) | < 0.03 | < 0.03 | < 0.03 | < 0.03 | < 0.03 | < 0.03 | 2 (≈ 2.37 µM) | 8 (≈ 9.47 µM) | 8 (≈ 9.47 µM) | MIC [21]: 32 µg/mL (≈ 37.9 µM); MIC [22]: 64 µg/mL (≈ 75.7 µM); MIC [23]: 8 µg/mL (≈ 9.47 µM); MIC [24]: 64 µg/mL (≈ 75.7 µM); MIC [25]: > 64 µg/mL; MIC [26]: 32 µg/mL (≈ 37.9 µM); MIC [27]: > 64 µg/mL |
| CC[C@H]1OC(=O)[C@H](C)C(=O)[C@H](C)[C@@H](O[C@@H]2OC(C)CC(N(C)C)C2O)[C@](C)(OC)C[C@@H](C)C(=O)[C@H](C)[C@H]2N(CC#CCn3cc(-c4cc(F)ccn4)nn3)C(=O)O[C@]12C (stereo partly drawn) [FSM-100566] | 32 (≈ 38.7 µM) | > 64 | 32 (≈ 38.7 µM) | 2 (≈ 2.42 µM) | > 64 | 0.06 (≈ 0.0726 µM) | 0.06 (≈ 0.0726 µM) | > 64 | 0.125 (≈ 0.151 µM) | 64 (≈ 77.4 µM) | > 64 | < 0.03 | < 0.03 | < 0.03 | < 0.03 | < 0.03 | < 0.03 | 8 (≈ 9.67 µM) | 16 (≈ 19.3 µM) | 8 (≈ 9.67 µM) | MIC [21]: 64 µg/mL (≈ 77.4 µM); MIC [22]: > 64 µg/mL; MIC [23]: 8 µg/mL (≈ 9.67 µM); MIC [24]: 64 µg/mL (≈ 77.4 µM); MIC [25]: > 64 µg/mL; MIC [26]: 64 µg/mL (≈ 77.4 µM); MIC [27]: > 64 µg/mL |
